Assay results from patent US9248131B2, “Aquaporin modulators and methods of using them for the treatment of edema and fluid imbalance” (THE ARIZONA BOARD OF REGENTS ON BEHALF OF THE UNIVERSITY OF …, priority 2006, dated 2016).

Assays:
AQP4 = target: T1, AQP4 (Homo sapiens, UniProt P55087); test: Oocyte swelling assay: water permeability (Pf) of AQP4-expressing oocytes by videomicroscopy, block or % stimulation; format: cell-based; details: for AQP-4 effect: comparison with bumetanide (in words): relative to bumetanide
T1 construct: expressed in transfected cells; host or cells: Xenopus oocytes
Text: (§1) A method for screening compounds for their ability to modulate aquaporin activity based on a water permeability assay in Xenopus oocytes expressing aquaporins which is used to identify, assess, and characterize compounds that either block or stimulate the aquaporin channels including AQP1, AQP4 and AQP9 channels.
(§2) Selection rationale and methodology. The ability of compounds, analogs and/or agents to block an aquaporin channel was quantified by videomicroscopic analyses of cross-sectional area of AQP-expressing oocytes as a function of time in a defined osmotic gradient, allowing the calculation of the water permeability factor (Pf), statistical evaluation of significant differences in the rate of water entry, and definition of dose response curves with IC50 values (concentration required for half-maximal block).
(§3) This compound evaluation method has been utilized with AQP1,-4,-5, and -9 channels. Observations of channel stimulation were made using the same assay method, however, the results were reported as % stimulation over control at a given concentration. […] TEA is known as a blocker of K^+ channel subtypes and nicotinic acetylcholine receptors. TEA sensitivity of AQP1 was removed by site-directed mutagenesis of tyrosine 186 to phenylalanine (Y186F) in the outer vestibule of the water pore, and confirmed that the inhibitory action of TEA is not due to nonspecific effects on endogenous channels (Brooks et al., 2000).

AQP1 [1] = target: T2, AQP1 (Homo sapiens, UniProt P29972); test: Oocyte swelling assay: water permeability (Pf) of AQP1-expressing oocytes, block or % stimulation; format: cell-based; set-up: expressed in transfected cells; host or cells: Xenopus oocytes; details: for AQP-1 effect (in words): given extracellularly
T2 sequence (P29972 1-269): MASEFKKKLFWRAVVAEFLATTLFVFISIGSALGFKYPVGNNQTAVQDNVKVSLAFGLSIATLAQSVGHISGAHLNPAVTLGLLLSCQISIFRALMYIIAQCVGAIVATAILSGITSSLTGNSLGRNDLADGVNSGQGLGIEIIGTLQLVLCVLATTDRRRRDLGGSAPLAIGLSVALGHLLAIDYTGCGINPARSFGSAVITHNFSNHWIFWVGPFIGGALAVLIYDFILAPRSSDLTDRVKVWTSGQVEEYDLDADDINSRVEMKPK
Text: as §1, §2, §3

AQP4-expressing oocytes = target: T3, AQP4-expressing oocytes (Homo sapiens, UniProt P55087); test: Simple screen: time to oocyte bursting in hypotonic saline; format: cell-based; details: AQP4-expressing oocytes; concentration not given
T3 construct: expressed in transfected cells; host or cells: Xenopus oocytes
Procedure: The composition of the library for initial AQP channel screening included various channel, transporter and receptor blocking compounds based on intuition and from clues regarding clinical side effects that involved water transporting tissues. In a simple screen (FIG. 1), control and AQP4-expressing oocytes were preincubated in isotonic saline (100 mM NaCl; 5 mM MgCl2; 5 mM HEPES, pH 7.3; ˜200 mOsm) containing the test compound for 10-15 min before each experiment; then the time to oocyte bursting (physical explosion) after transfer to 100 mOsm saline was monitored visually. […] Block was evident in the increased time required for bursting in hypotonic saline.

AQP1 [2] = target: T2, AQP1; details: AQP1 expressed in oocytes (Brooks et al., 2000); cited from earlier work
[3] = ↓ block, ↑ activation, ═ no effect, symbols not defined in the table
[4] = ↓ block, ↑ stimulation, ═ no effect, symbols not defined in the table

T1 sequence (P55087 whole entry, species assumed): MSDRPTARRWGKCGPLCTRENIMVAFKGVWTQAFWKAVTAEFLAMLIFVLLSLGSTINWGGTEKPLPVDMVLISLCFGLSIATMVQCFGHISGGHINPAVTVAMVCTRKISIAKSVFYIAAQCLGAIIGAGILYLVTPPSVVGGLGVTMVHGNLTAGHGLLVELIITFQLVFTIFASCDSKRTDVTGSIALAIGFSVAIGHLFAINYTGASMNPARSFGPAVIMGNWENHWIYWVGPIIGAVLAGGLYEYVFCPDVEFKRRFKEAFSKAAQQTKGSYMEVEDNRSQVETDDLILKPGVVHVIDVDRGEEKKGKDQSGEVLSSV
T3 sequence (P55087 whole entry, species assumed): as above

CCCCNc1c(Oc2ccccc2)cc(S(N)(=O)=O)cc1C(=O)OC
AQP-4 effect: % block (AQP4; at 1 μM extracellularly): −30%
AQP-4 effect: comparison with bumetanide (in words) (AQP4): Improved potency over bumetanide

CCCCNc1c(Oc2ccccc2)cc(S(=O)(=O)NC)cc1C(=O)OC
AQP-4 effect: % block (AQP4; at 10 μM extracellularly): −40%
AQP-4 effect: comparison with bumetanide (in words) (AQP4): Improved potency over bumetanide

CCCCNc1c(Oc2ccccc2)cc(S(=O)(=O)NC)cc1C(=O)O
AQP-4 effect: % block (AQP4; at 100 μM): −40%
AQP-4 effect: comparison with bumetanide (in words) (AQP4): Improved block

CCCCNc1cc(C(=O)N2CCN(C)CC2)cc(S(N)(=O)=O)c1Oc1ccccc1
AQP-4 effect (in words) (AQP4; at 10 μM): No Significant effect at 10 μM

CCCCNc1cc(C(=O)NCCN2CCOCC2)cc(S(N)(=O)=O)c1Oc1ccccc1
AQP-4 effect (in words) (AQP4; at 10 μM): Some agonist trend at 10 μM

CCCCNc1cc(C(=O)NCc2cccnc2)cc(S(N)(=O)=O)c1Oc1ccccc1
AQP-4 effect: % block (AQP4; at 10 μM): 50% block at 10 μM

CCCCNc1cc(C(=O)Nc2ccccn2)cc(S(N)(=O)=O)c1Oc1ccccc1
AQP-4 effect (in words) (AQP4; at 10 μM): No Significant effect at 10 μM

CCCCNc1cc(C(=O)NCc2ccccn2)cc(S(N)(=O)=O)c1Oc1ccccc1
AQP-4 effect (in words) (AQP4; at 10 μM): No Significant effect at 10 μM

CCCCNc1cc(C(=O)NCc2ccncc2)cc(S(N)(=O)=O)c1Oc1ccccc1
AQP-4 effect (in words) (AQP4; at 10 μM): No Significant effect at 10 μM

CCCCNc1cc(C(=O)NCCN2CCN(CCN)CC2)cc(S(N)(=O)=O)c1Oc1ccccc1
AQP-4 effect (in words) (AQP4; at 10 μM): No Significant effect at 10 μM

CCCCNc1cc(C(=O)NCCCN2CCN(C)CC2)cc(S(N)(=O)=O)c1Oc1ccccc1
AQP-4 effect (in words) (AQP4; at 10 μM): No Significant effect at 10 μM

CNS(=O)(=O)c1cc(C(=O)O)c(NCc2ccco2)cc1Cl
AQP-4 effect (arrow symbol) (AQP4; arrow symbols, key not given): (↑)?
AQP-1 effect (arrow symbol) (AQP1 [1]; arrow symbols, key not given): ↑

COC(=O)c1cc(S(=O)(=O)NCc2ccccc2)c(Cl)cc1NCc1ccco1
AQP-4 effect (arrow symbol) (AQP4; arrow symbols, key not given): ↑
AQP-4 effect (in words) (AQP4; at 100 μM): Significant Agonist Effect
AQP-1 effect (arrow symbol) (AQP1 [1]; arrow symbols, key not given): ═

O=C(O)c1cc(S(=O)(=O)NCc2ccccc2)c(Cl)cc1NCc1ccco1
AQP-4 effect (arrow symbol) (AQP4; arrow symbols, key not given): ═
AQP-1 effect (arrow symbol) (AQP1 [1]; arrow symbols, key not given): ↓

C=CCNS(=O)(=O)c1cc(C(=O)O)c(NCc2ccco2)cc1Cl
AQP-4 effect (arrow symbol) (AQP4; arrow symbols, key not given): ↑↑
AQP-4 effect (in words) (AQP4; at 100 μM): Significant Agonist Effect
AQP-1 effect (arrow symbol) (AQP1 [1]; arrow symbols, key not given): ═

NS(=O)(=O)c1cc2c(=O)ncn(Cc3ccco3)c2cc1Cl
AQP-4 effect (in words) (AQP4; at 100 μM): p > 0.05 No significant Antagonist Effect at 100 μM

NS(=O)(=O)c1cc(C(=O)O)c(Cl)cc1NCc1ccccc1
AQP-4 effect (in words) (AQP4; at 100 μM): p > 0.05 No significant Antagonist Effect at 100 μM

NS(=O)(=O)c1cc(C(=O)O)c(Cl)cc1NCc1ccco1
AQP-4 effect (in words) (AQP4; at 100 μM): Significant Agonist Effect at 100 μM

CCCCNc1cc(C(=O)OC)cc(S(N)(=O)=O)c1Oc1ccccc1 [AQP-0001, bumetanide methyl ester]
AQP-4 effect: % block (AQP4; 1 μM extracellularly): −30%
AQP-4 effect: potency compared with bumetanide (in words) (AQP4; extracellularly): Improved potency over bumetanide
AQP-4 effect (arrow symbol) (AQP4; [3]): ↓↓

CCCCNc1cc(C(=O)N2CCOCC2)cc(S(N)(=O)=O)c1Oc1ccccc1 [AQP-0006]
AQP-4 effect: % activation (AQP4; 10 μM given extracellularly): 70%
AQP-4 effect (arrow symbol) (AQP4; [3]): ↑

CCCCNc1cc(C(=O)NCCN2CCN(C)CC2)cc(S(N)(=O)=O)c1Oc1ccccc1 [AQP-0007]
AQP-4 effect: % activation (AQP4; 10 μM given extracellularly): 110%
AQP-4 effect (arrow symbol) (AQP4; [3]): ↑↑

CCCCNc1cc(C(=O)NCCN2CCS(=O)(=O)CC2)cc(S(N)(=O)=O)c1Oc1ccccc1 [AQP-0009]
AQP-4 effect: % activation (AQP4; 10 μM given extracellularly): 60%
AQP-4 effect (arrow symbol) (AQP4; [3]): ↑

CCCCNc1cc(C(=O)Nc2ccncc2)cc(S(N)(=O)=O)c1Oc1ccccc1 [AQP-0013]
AQP-4 effect: % block (AQP4; 10 μM extracellularly): 80%
AQP-4 effect (arrow symbol) (AQP4; [3]): ↓↓

COC(=O)c1cc(S(N)(=O)=O)c(Cl)cc1NCc1ccco1 [AQP-0022, Furosemide methyl ester]
AQP-4 effect (in words) (AQP4; 100 μM extracellularly): No significant effect
AQP-4 effect (arrow symbol) (AQP4; [3]): ═
AQP-1 effect (arrow symbol) (AQP1 [1]; [4]): ↓↓

CNS(=O)(=O)c1cc(C(=O)OC)c(NCc2ccco2)cc1Cl [AQP-0023, Furosemide methyl ester monomethyl sulfonamide]
AQP-4 effect: % agonist effect / agonist trend (AQP4; 100 μM given extracellularly): −20%
AQP-4 effect (arrow symbol) (AQP4; [3]): ↑
AQP-1 effect (arrow symbol) (AQP1 [1]; [4]): ↓↓

C=CCNS(=O)(=O)c1cc(C(=O)OC)c(NCc2ccco2)cc1Cl [AQP-0027]
AQP-4 effect: % block / antagonist trend (AQP4; 100 μM, route not stated): −25%
AQP-4 effect (arrow symbol) (AQP4; [3]): (↓)?
AQP-1 effect (in words) (AQP1 [1]): No significant effect
AQP-1 effect (arrow symbol) (AQP1 [1]; [4]): ═

NS(=O)(=O)c1cc(C(=O)O)c(NCc2ccco2)cc1NCc1ccco1 [AQP-0033]
AQP-4 effect: % agonist effect (AQP4; 100 μM, route not stated): −25%
AQP-4 effect (arrow symbol) (AQP4; [3]): ↑
AQP-1 effect (in words) (AQP1 [1]): No significant effect
AQP-1 effect (arrow symbol) (AQP1 [1]; [4]): ═

CCCCNc1c(Oc2ccccc2)cc(S(N)(=O)=O)cc1C(=O)O [Bumetanide AQP-0000]
AQP-4 effect: % block / antagonist trend (AQP4; 100 μM, route not stated): −35%
AQP-4 effect (arrow symbol) (AQP4; [3]): ↓

[Cl][Hg][Cl] [HgCl2]
time to oocyte bursting (AQP4-expressing oocytes): no effect

CCCCNc1c(Oc2ccccc2)cc(S(N)(=O)=O)cc1C(=O)O [drawing 94]
AQP-4 effect: % block (AQP4; at 100 μM): −35% block at 100 μM

CCCCNc1cc(C(=O)N2CCOCC2)cc(S(N)(=O)=O)c1Oc1ccccc1 [drawing 100]
AQP-4 effect: % activation (AQP4; at 10 μM): 70% Activation at 10 μM

CCCCNc1cc(C(=O)NCCN2CCN(C)CC2)cc(S(N)(=O)=O)c1Oc1ccccc1 [drawing 101]
AQP-4 effect: % activation (AQP4; at 10 μM): 110% activation at 10

CCCCNc1cc(C(=O)NCCN2CCS(=O)(=O)CC2)cc(S(N)(=O)=O)c1Oc1ccccc1 [drawing 103]
AQP-4 effect: % activation (AQP4; at 10 μM): 60% activation at 10 μM

CCCCNc1cc(C(=O)Nc2ccncc2)cc(S(N)(=O)=O)c1Oc1ccccc1 [drawing 107]
AQP-4 effect: % block (AQP4; at 10 μM): 80%
toxicity observed in AQP-4 test (AQP4; at 10 μM): some toxicity observed

COC(=O)c1cc(S(N)(=O)=O)c(Cl)cc1NCc1ccco1 [drawing 114]
AQP-4 effect (arrow symbol) (AQP4; arrow symbols, key not given): ═
AQP-1 effect (arrow symbol) (AQP1 [1]; arrow symbols, key not given): ↓↓

CNS(=O)(=O)c1cc(C(=O)OC)c(NCc2ccco2)cc1Cl [drawing 115]
AQP-4 effect (arrow symbol) (AQP4; arrow symbols, key not given): ↑
AQP-4 effect (in words) (AQP4; at 100 μM): Significant Agonist Effect
AQP-1 effect (arrow symbol) (AQP1 [1]; arrow symbols, key not given): ↓↓

NS(=O)(=O)c1cc(C(=O)O)c(NCc2ccco2)cc1Cl [drawing 117]
AQP-4 effect (arrow symbol) (AQP4; arrow symbols, key not given): ? ↑
AQP-1 effect (arrow symbol) (AQP1 [1]; arrow symbols, key not given): ═

C=CCNS(=O)(=O)c1cc(C(=O)OC)c(NCc2ccco2)cc1Cl [drawing 119]
AQP-4 effect (arrow symbol) (AQP4; arrow symbols, key not given): (↑)?
AQP-4 effect (in words) (AQP4; at 100 μM): No significant Antagonist Effect
AQP-1 effect (arrow symbol) (AQP1 [1]; arrow symbols, key not given): ═

NS(=O)(=O)c1cc(C(=O)O)c(NCc2ccco2)cc1Cl [furosemide, Furosemide, reference compound]
AQP-4 effect: % block (AQP4; 15 μM given intracellularly): 75%
AQP-4 effect (in words) (AQP4; 100 μM extracellularly): Modest effect
block of swelling rate in AQP4-expressing oocytes (AQP4; extracellular application): less effective then bumetanide
block of swelling in AQP4-expressing oocytes (AQP4; internal injection into the oocyte (intracellular)): improved block at lower concentrations
AQP-4 effect (arrow symbol) (AQP4; [3]): ↓↓
AQP-1 effect (arrow symbol) (AQP1 [1]; [4]): ═

CC[N+](CC)(CC)CC [tetraethylammonium (TEA), tetraethylammonium]
water flux through AQP1 channels (AQP1 [2]): blocks water flux
